Patent US7772255B2, “Method of treating tumors with azaxanthones” (Supratek Pharma, Inc., priority 2005, dated 2010)
Structures can show the parent of a compound that is named as a salt. Where two headings read alike, the source gives them in different places.

Legend:
[1] = Pharmacokinetics in normal dogs; format: in vivo, dog (Canis familiaris); conditions: 10 mg/kg
Experimental: Experiments were performed in 6 male Beagle dogs (Canis familiaris) (from 8 to 14 kg body weight, 2 to 3 years of age). The animals had ad libitum access to tap water. Commercial dog chow was provided to the animals once daily during a 2-hour feeding period.
Dosing solution of amlexanox salt was prepared by simple dissolving of amlexanox salt in water. Dosing solution of amlexanox acid was prepared suspending of amlexanox acid in 0.5% methyl cellulose.
Amlexanox acid and Na salt forms were orally administered by gavage in dogs (three animals in each group) at doses of 10 mg/kg. Amlexanox tablets L and CP, prepared according to Example 13, were administered to dogs orally at doses of 10 mg/kg. After various time intervals (pre-dose, 15, 30 min and 1, 2, 3, 6, 8, 12, 24 and 48 h) post-injection, blood was collected from the jugular vein of animals. Then, blood was immediately centrifuged, and plasma was separated. The plasma samples were immediately frozen in dry ice and stored at −80° C. until further use.
(§1) The defrosted plasma samples were centrifuged at 2000 g for 5 min, and aliquots (10 μL) of each sample were transferred into 1.5-ml plastic tubes. The samples were diluted with PBS in various amounts of times and aliquots of 100 μL were transferred into the other 1.5-ml plastic tubes. The samples were extracted with 1 mL of 100% acetonitrile for 10 min on 180° rotator. Then, the tubes were centrifuged at 10,000 g for 15 min.
(§2) The supernatant was separated to glass tubes and evaporated in a stream of nitrogen at […]. until dryness. The dried samples were kept at −20° C. until HPLC analysis. The samples were reconstituted in 100 μL of mobile phase analyze before analyze by HPLC.
(§3) The samples were analysed by HPLC using 250×4.6 mm, Phenomenex C18 Luna, 5 micron column, 1 mL/min flow rate of mobile phase 73% of 25 mM sodium phosphate pH 7.5 and 27% acetonitrile; fluorescent deyection λexcitation=348 nm, λemission=404 nm.
The concentrations of amlexanox in samples were determined by comparison with calibration curve obtained from spiked dog plasma samples using the same analytical method. The areas under the curves (AUC) of amlexanox were calculated by trapezoidal method.

[2] = Bioavailability and pharmacokinetics in normal rats; format: in vivo, rat; conditions: for AUC / Cmax / MRT / half-life / bioavailability / clearance / Vd: female, CD; for AUC / Cmax / MRT / half-life / bioavailability: rat, plasma; for AUC / Cmax / MRT / half-life / CL / Vss / clearance / Vd: rat plasma; for bioavailability: read-out: Bioavailability for oral administration; for CL / Vss: oral; for Vd: read-out: Vss
Experimental: Female CD rats (from 200 to 250 g body weight) were obtained from Charles River Canada Inc. (St. Constant, Quebec, Canada). The animals were kept 4 per cage with an air filter cover under light (12 h light/dark cycle, light on at 06 h 00) and temperature (22°±1° C.)-controlled environment. All manipulations with the animals were performed under a sterilized laminar hood. The animals had ad libitum access to Purina rat chow (Pro Lab PMH 4018, Trademark of Agway, Syracuse, N.Y.) and water. The animal studies were conducted according to the “Guidelines for Care and Use of Experimental Animals”.
For Amlexanox salt the dosing solution was prepared by dissolving 20 mg of Amlexanox in equi-molar NaOH solution and then, equilibrated with 1M Tris-HCl pH 7.4. For Amlexanox acid the dosing solution was prepared by simple suspending 20 mg of Amlexanox in 1% methyl cellulose in water.
Amlexanox dosing solution (20 mg/mL) was administered i.v. and orally in normal rats (four animals in each group) at doses of 10, 25, 50, 100 and 200 mg/kg. After various time intervals (30 min and 1, 3, 6, 10 and 24 h) post-injection, blood was collected from eye vein of animals. Then, blood was immediately centrifuged, and plasma was separated. The plasma samples were immediately frozen in dry ice and stored at −80° C. until further use.
as §1, with “phosphate buttered saline (PBS)” for “PBS”
as §2, §3
The concentrations of Amlexanox in samples were determined by comparison with calibration curve obtained from spiked rat plasma samples using the same analytical method. The areas under the curves (AUC) of Amlexanox were calculated by trapezoidal method.

[3] = dog plasma, oral, listed as Amlexanox Acid
[4] = po, 10 mg/kg, acid suspended in 1% methyl cellulose
[5] = po, 25 mg/kg, acid suspended in 1% methyl cellulose
[6] = po, 50 mg/kg, acid suspended in 1% methyl cellulose
[7] = po, 100 mg/kg, acid suspended in 1% methyl cellulose
[8] = po, 200 mg/kg, acid suspended in 1% methyl cellulose
[9] = acid suspended in 1% methyl cellulose, 10 mg/kg
[10] = acid suspended in 1% methyl cellulose, 25 mg/kg
[11] = acid suspended in 1% methyl cellulose, 50 mg/kg
[12] = acid suspended in 1% methyl cellulose, 100 mg/kg
[13] = acid suspended in 1% methyl cellulose, 200 mg/kg
[14] = dog plasma, oral, listed as Amlexanox Na Salt, sodium salt

CC(C)c1ccc2oc3nc(N)c(C(=O)O)cc3c(=O)c2c1 [Amlexanox, 2-amino-7-isopropyl-1-azaxanthone-3-carboxylic acid]
AUC [1, 3]: 7600 ng·h/mL | CL [1, 3]: 21.7 mL/min/kg | Cmax [1, 3]: 3400 ng/mL | Vss [1, 3]: 4.3 L/kg | half-life ([1]; male, Beagle, dog, plasma, po): 2.3 h | MRT ([1]; male, Beagle, dog, plasma, po, read-out: MRT): 3.3 h | AUC [2, 4]: 1050 ng·h/mL | Cmax [2, 4]: 370 ng/mL | MRT [2, 4]: 6.28 h | half-life [2, 4]: 4.36 h | bioavailability ([2]; po, 10 mg/kg, acid, 10 mg/kg): 31.5% | AUC [2, 5]: 1380 ng·h/mL | Cmax [2, 5]: 260 ng/mL | MRT [2, 5]: 11.3 h | half-life [2, 5]: 7.81 h | bioavailability ([2]; po, 25 mg/kg, acid, 25 mg/kg): 2.9% | AUC [2, 6]: 2380 ng·h/mL | Cmax [2, 6]: 580 ng/mL | MRT [2, 6]: 8.43 h | half-life [2, 6]: 5.84 h | bioavailability ([2]; po, 50 mg/kg, acid, 50 mg/kg): 1.1% | AUC [2, 7]: 8830 ng·h/mL | Cmax [2, 7]: 1170 ng/mL | MRT [2, 7]: 8.7 h | half-life [2, 7]: 6.04 h | bioavailability ([2]; po, 100 mg/kg, acid, 100 mg/kg): 2.2% | AUC [2, 8]: 18600 ng·h/mL | Cmax [2, 8]: 7000 ng/mL | MRT [2, 8]: 5.32 h | half-life [2, 8]: 3.68 h | bioavailability ([2]; po, 200 mg/kg, acid, 200 mg/kg): 2.5% | CL [2, 9]: 158 mL/min/kg | Vss [2, 9]: 59.8 L/kg | CL [2, 10]: 301.7 mL/min/kg | Vss [2, 10]: 204 L/kg | CL [2, 11]: 350.2 mL/min/kg | Vss [2, 11]: 177.2 L/kg | CL [2, 12]: 188.3 mL/min/kg | Vss [2, 12]: 98.5 L/kg | CL [2, 13]: 89.5 mL/min/kg | Vss [2, 13]: 28.5 L/kg

CC(C)c1ccc2oc3nc(N)c(C(=O)O)cc3c(=O)c2c1 [Amlexanox (salt), 2-amino-7-isopropyl-1-azaxanthone-3-carboxylic acid sodium salt]
AUC [1, 14]: 29000 ng·h/mL | CL [1, 14]: 5 mL/min/kg | Cmax [1, 14]: 10700 ng/mL | MRT [1, 14]: 2.5 h | Vss [1, 14]: 0.9 L/kg | t1/2 [1, 14]: 1.8 h | clearance ([2]; iv, I.V., 10 mg/kg): 50 mL/min/kg | Vd ([2]; iv, I.V., 10 mg/kg): 2.26 L/kg | clearance ([2]; iv, I.V., 25 mg/kg): 8.83 mL/min/kg | Vd ([2]; iv, I.V., 25 mg/kg): 0.99 L/kg | clearance ([2]; iv, I.V., 50 mg/kg): 1.67 mL/min/kg | Vd ([2]; iv, I.V., 50 mg/kg): 0.1 L/kg | clearance ([2]; iv, I.V., 100 mg/kg): 2.17 mL/min/kg | Vd ([2]; iv, I.V., 100 mg/kg): 0.14 L/kg | clearance ([2]; iv, I.V., 200 mg/kg): 4.5 mL/min/kg | Vd ([2]; iv, I.V., 200 mg/kg): 0.51 L/kg | AUC ([2]; iv, 10 mg/kg, I.V.): 3300 ng·h/mL | Cmax ([2]; iv, 10 mg/kg, I.V.): 4500 ng/mL | MRT ([2]; iv, 10 mg/kg, I.V.): 0.75 h | half-life ([2]; iv, 10 mg/kg, I.V.): 0.52 h | AUC ([2]; iv, 25 mg/kg, I.V.): 47000 ng·h/mL | Cmax ([2]; iv, 25 mg/kg, I.V.): 33400 ng/mL | MRT ([2]; iv, 25 mg/kg, I.V.): 1.87 h | half-life ([2]; iv, 25 mg/kg, I.V.): 1.29 h | AUC ([2]; iv, 50 mg/kg, I.V.): 217000 ng·h/mL | Cmax ([2]; iv, 50 mg/kg, I.V.): 165000 ng/mL | MRT ([2]; iv, 50 mg/kg, I.V.): 1.05 h | half-life ([2]; iv, 50 mg/kg, I.V.): 0.69 h | AUC ([2]; iv, 100 mg/kg, I.V.): 398000 ng·h/mL | Cmax ([2]; iv, 100 mg/kg, I.V.): 216000 ng/mL | MRT ([2]; iv, 100 mg/kg, I.V.): 1.14 h | half-life ([2]; iv, 100 mg/kg, I.V.): 0.75 h | AUC ([2]; iv, 200 mg/kg, I.V.): 739000 ng·h/mL | Cmax ([2]; iv, 200 mg/kg, I.V.): 466000 ng/mL | MRT ([2]; iv, 200 mg/kg, I.V.): 1.89 h | half-life ([2]; iv, 200 mg/kg, I.V.): 1.31 h | AUC ([2]; po, 10 mg/kg, salt solution): 1040 ng·h/mL | Cmax ([2]; po, 10 mg/kg, salt solution): 190 ng/mL | MRT ([2]; po, 10 mg/kg, salt solution): 8.29 h | half-life ([2]; po, 10 mg/kg, salt solution): 5.76 h | bioavailability ([2]; po, 10 mg/kg, salt, 10 mg/kg): 31.2% | AUC ([2]; po, 25 mg/kg, salt solution): 2200 ng·h/mL | Cmax ([2]; po, 25 mg/kg, salt solution): 550 ng/mL | MRT ([2]; po, 25 mg/kg, salt solution): 7.71 h | half-life ([2]; po, 25 mg/kg, salt solution): 5.33 h | bioavailability ([2]; po, 25 mg/kg, salt, 25 mg/kg): 4.7% | AUC ([2]; po, 50 mg/kg, salt solution): 4470 ng·h/mL | Cmax ([2]; po, 50 mg/kg, salt solution): 1590 ng/mL | MRT ([2]; po, 50 mg/kg, salt solution): 7.28 h | half-life ([2]; po, 50 mg/kg, salt solution): 5.04 h | bioavailability ([2]; po, 50 mg/kg, salt, 50 mg/kg): 2.1% | AUC ([2]; po, 100 mg/kg, salt solution): 41200 ng·h/mL | Cmax ([2]; po, 100 mg/kg, salt solution): 19800 ng/mL | MRT ([2]; po, 100 mg/kg, salt solution): 2.05 h | half-life ([2]; po, 100 mg/kg, salt solution): 1.42 h | bioavailability ([2]; po, 100 mg/kg, salt, 100 mg/kg): 10.3% | AUC ([2]; po, 200 mg/kg, salt solution): 200000 ng·h/mL | Cmax ([2]; po, 200 mg/kg, salt solution): 95200 ng/mL | MRT ([2]; po, 200 mg/kg, salt solution): 1.77 h | half-life ([2]; po, 200 mg/kg, salt solution): 1.23 h | bioavailability ([2]; po, 200 mg/kg, salt, 200 mg/kg): 27.1% | CL ([2]; salt solution, 10 mg/kg): 160 mL/min/kg | Vss ([2]; salt solution, 10 mg/kg): 79.8 L/kg | CL ([2]; salt solution, 25 mg/kg): 190 mL/min/kg | Vss ([2]; salt solution, 25 mg/kg): 87.7 L/kg | CL ([2]; salt solution, 50 mg/kg): 187 mL/min/kg | Vss ([2]; salt solution, 50 mg/kg): 81.4 L/kg | CL ([2]; salt solution, 100 mg/kg): 40.5 mL/min/kg | Vss ([2]; salt solution, 100 mg/kg): 4.99 L/kg | CL ([2]; salt solution, 200 mg/kg): 8.3 mL/min/kg | Vss ([2]; salt solution, 200 mg/kg): 0.89 L/kg
